Experimental data from PubChem BioAssay AID1919013 (Molecular Pharmacology Branch, DTP, NCI, 2023).
Each block holds one compound with its values, some of them ahead of it.

Tested on: LG0703-F498-PDC complex spheroid growth
Assay: Anticancer human tumor LG0703-F498-PDC patient-derived lung adenocarcinoma cell line growth inhibition [AhR]
Details: for IC50: curve of first compound; for viability, T/C: stronger effect = lower value
How it was run: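 Complex tumor spheroids co-cultured with HUVEC and human MSC stroma; AhR antagonists tested in combination with standard-of-care and investigational agents. Top concentration at or near clinical Cmax (else 10 microM), half-log dilutions; growth expressed as percent test/control.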

[1] = second compound 0.1 µM, first compound 0.0316 µM
[2] = second compound 0.1 µM, first compound 0.1 µM
[3] = second compound 0.1 µM, first compound 0.316 µM
[4] = second compound 0.1 µM, first compound 1 µM
[5] = second compound 0.1 µM, first compound 3.16 µM
[6] = second compound 0.1 µM, first compound 10 µM
[7] = second compound 0.316 µM, first compound 0.0316 µM
[8] = second compound 0.316 µM, first compound 0.1 µM
[9] = second compound 0.316 µM, first compound 0.316 µM
[10] = second compound 0.316 µM, first compound 1 µM
[11] = second compound 0.316 µM, first compound 3.16 µM
[12] = second compound 0.316 µM, first compound 10 µM
[13] = second compound 1 µM, first compound 0.0316 µM
[14] = second compound 1 µM, first compound 0.1 µM
[15] = second compound 1 µM, first compound 0.316 µM
[16] = second compound 1 µM, first compound 1 µM
[17] = second compound 1 µM, first compound 3.16 µM
[18] = second compound 1 µM, first compound 10 µM
[19] = second compound 3.16 µM, first compound 0.0316 µM
[20] = second compound 3.16 µM, first compound 0.1 µM
[21] = second compound 3.16 µM, first compound 0.316 µM
[22] = second compound 3.16 µM, first compound 1 µM
[23] = second compound 3.16 µM, first compound 3.16 µM
[24] = second compound 3.16 µM, first compound 10 µM
[25] = second compound 10 µM, first compound 0.0316 µM
[26] = second compound 10 µM, first compound 0.1 µM
[27] = second compound 10 µM, first compound 0.316 µM
[28] = second compound 10 µM, first compound 1 µM
[29] = second compound 10 µM, first compound 3.16 µM
[30] = second compound 10 µM, first compound 10 µM
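Also: luminescence taken as a proxy for viable cell amount.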
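For viability, T/C in this document: percent of DMSO vehicle control where 100% means growth equal to vehicle.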

IC50 (second compound 0.1 µM): 4.06 nM
IC50 (second compound 0.316 µM): 4.36 nM
IC50 (second compound 1 µM): 3.62 nM
IC50 (second compound 3.16 µM): 1.12 nM
IC50 (second compound 10 µM): < 0.949 nM
Structure (SMILES): CC(C)CC(NC(=O)C(Cc1ccccc1)NC(=O)c1cnccn1)B(O)O (stereo not given) + Cc1cncc(-c2nc(NCCc3c[nH]c4ccccc34)c3ncn(C(C)C)c3n2)c1
viability, T/C (second compound 0.1 µM, first compound 0.000949 µM): 90.8%
viability, T/C (second compound 0.1 µM, first compound 0.003 µM): 65.4%
viability, T/C (second compound 0.1 µM, first compound 0.00949 µM): 6.78%
viability, T/C (second compound 0.1 µM, first compound 0.03 µM): 0.57%
viability, T/C (second compound 0.1 µM, first compound 0.0949 µM): 0.07%
viability, T/C (second compound 0.1 µM, first compound 0.3 µM): 0.18%
viability, T/C (second compound 0.316 µM, first compound 0.000949 µM): 101%
viability, T/C (second compound 0.316 µM, first compound 0.003 µM): 71.3%
viability, T/C (second compound 0.316 µM, first compound 0.00949 µM): 5.68%
viability, T/C (second compound 0.316 µM, first compound 0.03 µM): 0.52%
viability, T/C (second compound 0.316 µM, first compound 0.0949 µM): 0.13%
viability, T/C (second compound 0.316 µM, first compound 0.3 µM): 0.41%
viability, T/C (second compound 1 µM, first compound 0.000949 µM): 115%
viability, T/C (second compound 1 µM, first compound 0.003 µM): 58.9%
viability, T/C (second compound 1 µM, first compound 0.00949 µM): 4.01%
viability, T/C (second compound 1 µM, first compound 0.03 µM): 0.74%
viability, T/C (second compound 1 µM, first compound 0.0949 µM): 0.04%
viability, T/C (second compound 1 µM, first compound 0.3 µM): 0.35%
viability, T/C (second compound 3.16 µM, first compound 0.000949 µM): 52.8%
viability, T/C (second compound 3.16 µM, first compound 0.003 µM): 33.7%
viability, T/C (second compound 3.16 µM, first compound 0.00949 µM): 1.21%
viability, T/C (second compound 3.16 µM, first compound 0.03 µM): 0.06%
viability, T/C (second compound 3.16 µM, first compound 0.0949 µM): 0.5%
viability, T/C (second compound 3.16 µM, first compound 0.3 µM): 0.67%
viability, T/C (second compound 10 µM, first compound 0.000949 µM): 1.32%
viability, T/C (second compound 10 µM, first compound 0.003 µM): 0.98%
viability, T/C (second compound 10 µM, first compound 0.00949 µM): 0.8%
viability, T/C (second compound 10 µM, first compound 0.03 µM): 0.13%
viability, T/C (second compound 10 µM, first compound 0.0949 µM): 1.1%
viability, T/C (second compound 10 µM, first compound 0.3 µM): 1.18%

IC50 (second compound 0.1 µM): 3970 nM
IC50 (second compound 0.316 µM): 5260 nM
IC50 (second compound 1 µM): 2830 nM
IC50 (second compound 3.16 µM): < 31.6 nM
IC50 (second compound 10 µM): < 31.6 nM
Structure (SMILES): COc1cc(Nc2ncc3c(n2)-c2ccc(Cl)cc2C(c2c(F)cccc2OC)=NC3)ccc1C(=O)O + Cc1cncc(-c2nc(NCCc3c[nH]c4ccccc34)c3ncn(C(C)C)c3n2)c1
viability, T/C [1]: 88.6%
viability, T/C [2]: 77.1%
viability, T/C [3]: 65.4%
viability, T/C [4]: 65.8%
viability, T/C [5]: 60.2%
viability, T/C [6]: 35%
viability, T/C [7]: 81.8%
viability, T/C [8]: 80.5%
viability, T/C [9]: 58.9%
viability, T/C [10]: 78.2%
viability, T/C [11]: 58.1%
viability, T/C [12]: 38.2%
viability, T/C [13]: 94.4%
viability, T/C [14]: 70.7%
viability, T/C [15]: 63%
viability, T/C [16]: 63.7%
viability, T/C [17]: 55.9%
viability, T/C [18]: 35.1%
viability, T/C [19]: 45.7%
viability, T/C [20]: 33.3%
viability, T/C [21]: 38.1%
viability, T/C [22]: 34.6%
viability, T/C [23]: 18.9%
viability, T/C [24]: 10.2%
viability, T/C [25]: 1.81%
viability, T/C [26]: 1.7%
viability, T/C [27]: 2.07%
viability, T/C [28]: 1.87%
viability, T/C [29]: 1.84%
viability, T/C [30]: 3.35%

IC50 (second compound 0.1 µM): 3930 nM
IC50 (second compound 0.316 µM): 2730 nM
IC50 (second compound 1 µM): 2200 nM
IC50 (second compound 3.16 µM): 725 nM
IC50 (second compound 10 µM): < 31.6 nM
Structure (SMILES): NS(=O)(=O)OCC1CC(n2ccc3c(NC4CCc5ccccc54)ncnc32)CC1O (stereo not given) + Cc1cncc(-c2nc(NCCc3c[nH]c4ccccc34)c3ncn(C(C)C)c3n2)c1
viability, T/C [1]: 105%
viability, T/C [2]: 113%
viability, T/C [3]: 66.7%
viability, T/C [4]: 101%
viability, T/C [5]: 44%
viability, T/C [6]: 30.7%
viability, T/C [7]: 113%
viability, T/C [8]: 97.3%
viability, T/C [9]: 53.3%
viability, T/C [10]: 97.2%
viability, T/C [11]: 39.8%
viability, T/C [12]: 28.9%
viability, T/C [13]: 111%
viability, T/C [14]: 79.7%
viability, T/C [15]: 54%
viability, T/C [16]: 106%
viability, T/C [17]: 32.6%
viability, T/C [18]: 26.2%
viability, T/C [19]: 70.9%
viability, T/C [20]: 70.1%
viability, T/C [21]: 50%
viability, T/C [22]: 55.4%
viability, T/C [23]: 27.2%
viability, T/C [24]: 16.9%
viability, T/C [25]: 2.35%
viability, T/C [26]: 3.18%
viability, T/C [27]: 6.94%
viability, T/C [28]: 2.85%
viability, T/C [29]: 6.79%
viability, T/C [30]: 5.98%

IC50 (second compound 0.1 µM): 849 nM
IC50 (second compound 0.316 µM): 563 nM
IC50 (second compound 1 µM): 571 nM
IC50 (second compound 3.16 µM): < 31.6 nM
IC50 (second compound 10 µM): < 31.6 nM
Structure (SMILES): Nc1ccccc1NC(=O)c1ccc(CNC(=O)OCc2cccnc2)cc1 + Cc1cncc(-c2nc(NCCc3c[nH]c4ccccc34)c3ncn(C(C)C)c3n2)c1
viability, T/C [1]: 93%
viability, T/C [2]: 89.2%
viability, T/C [3]: 68.7%
viability, T/C [4]: 53.4%
viability, T/C [5]: 4.49%
viability, T/C [6]: 0.69%
viability, T/C [7]: 100%
viability, T/C [8]: 90.4%
viability, T/C [9]: 67.2%
viability, T/C [10]: 34.5%
viability, T/C [11]: 3.29%
viability, T/C [12]: 0.43%
viability, T/C [13]: 78.4%
viability, T/C [14]: 87.5%
viability, T/C [15]: 62.8%
viability, T/C [16]: 36.5%
viability, T/C [17]: 2.86%
viability, T/C [18]: 0.16%
viability, T/C [19]: 34%
viability, T/C [20]: 23.7%
viability, T/C [21]: 21%
viability, T/C [22]: 10.6%
viability, T/C [23]: 3.34%
viability, T/C [24]: 0.15%
viability, T/C [25]: 0.75%
viability, T/C [26]: 0.81%
viability, T/C [27]: 0.77%
viability, T/C [28]: 0.69%
viability, T/C [29]: 0.77%
viability, T/C [30]: 0.17%

IC50 (second compound 0.1 µM): 619 nM
IC50 (second compound 0.316 µM): 657 nM
IC50 (second compound 1 µM): 523 nM
IC50 (second compound 3.16 µM): 423 nM
IC50 (second compound 10 µM): < 31.6 nM
Structure (SMILES): O=C(C=Cc1cccc(S(=O)(=O)Nc2ccccc2)c1)NO + Cc1cncc(-c2nc(NCCc3c[nH]c4ccccc34)c3ncn(C(C)C)c3n2)c1
viability, T/C [1]: 118%
viability, T/C [2]: 115%
viability, T/C [3]: 75.8%
viability, T/C [4]: 30.8%
viability, T/C [5]: 10.1%
viability, T/C [6]: 1.27%
viability, T/C [7]: 111%
viability, T/C [8]: 104%
viability, T/C [9]: 81.1%
viability, T/C [10]: 32%
viability, T/C [11]: 7.58%
viability, T/C [12]: 1.48%
viability, T/C [13]: 106%
viability, T/C [14]: 108%
viability, T/C [15]: 69.3%
viability, T/C [16]: 23.6%
viability, T/C [17]: 6.31%
viability, T/C [18]: 0.83%
viability, T/C [19]: 59.9%
viability, T/C [20]: 71.5%
viability, T/C [21]: 57.8%
viability, T/C [22]: 25%
viability, T/C [23]: 6.63%
viability, T/C [24]: 1.68%
viability, T/C [25]: 1.93%
viability, T/C [26]: 2.88%
viability, T/C [27]: 4.14%
viability, T/C [28]: 8.01%
viability, T/C [29]: 9.58%
viability, T/C [30]: 1.55%

IC50 (second compound 0.1 µM): > 10000 nM
IC50 (second compound 0.316 µM): > 10000 nM
IC50 (second compound 1 µM): > 10000 nM
IC50 (second compound 3.16 µM): < 31.6 nM
IC50 (second compound 10 µM): < 31.6 nM
Structure (SMILES): O=C(c1cc(Cc2n[nH]c(=O)c3ccccc23)ccc1F)N1CCN(C(=O)C2CC2)CC1 + Cc1cncc(-c2nc(NCCc3c[nH]c4ccccc34)c3ncn(C(C)C)c3n2)c1
viability, T/C [1]: 105%
viability, T/C [2]: 98.5%
viability, T/C [3]: 99.3%
viability, T/C [4]: 84.1%
viability, T/C [5]: 93.4%
viability, T/C [6]: 72.5%
viability, T/C [7]: 90.7%
viability, T/C [8]: 103%
viability, T/C [9]: 95%
viability, T/C [10]: 95.5%
viability, T/C [11]: 89.4%
viability, T/C [12]: 80.8%
viability, T/C [13]: 108%
viability, T/C [14]: 95.9%
viability, T/C [15]: 99.8%
viability, T/C [16]: 99.4%
viability, T/C [17]: 98.3%
viability, T/C [18]: 78.1%
viability, T/C [19]: 40.2%
viability, T/C [20]: 43.1%
viability, T/C [21]: 51.7%
viability, T/C [22]: 46.2%
viability, T/C [23]: 40%
viability, T/C [24]: 43%
viability, T/C [25]: 0.8%
viability, T/C [26]: 0.83%
viability, T/C [27]: 0.8%
viability, T/C [28]: 0.79%
viability, T/C [29]: 0.66%
viability, T/C [30]: 1.47%
